These results are taken from ChEMBL document CHEMBL4699427, “A3- and A2B-fluorocorroles: synthesis, X-ray characterization and antiviral activity evaluation against human cytomegalovirus infection” (RSC Med Chem, 2020).

Data set [1] has as its system Human betaherpesvirus 5. Kind of data set: Antiviral activity against Human Cytomegalovirus infected in human MRC5 cells assessed as reduction in infection rate incubated for 6 days by Hoechst 33342 staining based microscopic analysis. Format: functional, cell-based. Particulars: Human betaherpesvirus 5, MRC5, 144 h; read-out: IC50.
For data set [2], the system named is Human betaherpesvirus 5. The data set can be described thus: Antiviral activity against human Cytomegalovirus infected in human ARPE-19 cells assessed as reduction in viral replication incubated for 13 days by Hoechst 33342 staining based microscopic analysis. In kind it is functional, cell-based. Particulars: Human betaherpesvirus 5, ARPE-19, 312 h.
Data set [3] can be described thus: Selectivity index, ratio of CC50 for human MRC5 cells to IC50 for human Cytomegalovirus infected in human MRC5 cells incubated for 6 days. In kind it is toxicity, cell-based. Particulars: time 6 day, read-out: Ratio CC50/IC50.
Data set [4] in a line: Selectivity index, ratio of CC50 for human MRC5 cells to IC50 for human Cytomegalovirus infected in human ARPE-19 cells incubated for 13 days. The settings on record: time 6 day, read-out: Ratio CC50/IC50. Format: toxicity, cell-based.
Data set [5] in a line: Cytotoxicity against human MRC5 cells assessed as reduction in cell viability incubated for 6 days by Hoechst 33342 staining based microscopic analysis. The settings on record: time 6 day.
Data set [6] deals with Human betaherpesvirus 5. The data set can be described thus: Virucidal activity against human Cytomegalovirus infected in MRC-5 cells at 0.187 to 3 uM preincubated for 1 hr with virus followed by cell line addition and measured after 24 hrs by Hoechst 33342 staining based microscopic analysis. Format: functional. Particulars: MRC5, dose microM 0.187-3, time 25.0 hrs.
For data set [7], the system named is Human betaherpesvirus 5. The data set can be described thus: Antiviral activity against human Cytomegalovirus infected in human MRC5 cells assessed as reduction in viral infection rate at 0.75 uM incubated for 6 days by Hoechst 33342 staining based microscopic analysis. Particulars: time 6.0 day. Format: functional, cell-based.
Data set [8] deals with Human betaherpesvirus 5. Kind of data set: Antiviral activity against human Cytomegalovirus infected in human MRC5 cells assessed as reduction in viral replication at 0.75 uM incubated for 6 days by Hoechst 33342 staining based microscopic analysis. In kind it is functional, cell-based. The settings on record: time 6.0 day.
In data set [9] the test system is Human betaherpesvirus 5. The data set can be described thus: Induction of viral absorption in human Cytomegalovirus harboring ANCHOR infected in human MRC-5 cells at 0.187 to 3 uM incubated for 18 hrs post infection by Hoechst 33342 staining based microscopic analysis. In kind it is functional, organism-based. Particulars: MRC5, dose microM 0.187-3, time 18.0 hrs.

Data set [10] has as its system Human betaherpesvirus 5. Kind of data set: Antiviral activity against human Cytomegalovirus harboring ANCHOR infected in ARPE-19 cells assessed as reduction in viral DNA replication preincubated for 2 hrs with cells followed by infected with virus and measured after 24 hrs by Hoechst 33342 staining based microscopic analysis. In kind it is functional, cell-based. Particulars: dose microM 0.187-3, time 26.0 hrs.

Data set [11] concerns Human betaherpesvirus 5. Kind of data set: Antiviral activity against human Cytomegalovirus infected in human ARPE-19 cells assessed as reduction in virus-induced cytopathic effect at 0.75 uM incubated for 10 days by Hoechst 33342 staining based microscopic analysis. Format: functional, cell-based. Particulars: time 10.0 day.
Data set [12] deals with Human betaherpesvirus 5. Kind of data set: Antiviral activity against human Cytomegalovirus infected in human ARPE-19 cells assessed as reduction in infection rate incubated for 12 days by Hoechst 33342 staining based microscopic analysis. In kind it is functional, cell-based. Particulars: Human betaherpesvirus 5, ARPE-19, 288 h.
The test system of data set [13] is Human betaherpesvirus 5. Kind of data set: Antiviral activity against human Cytomegalovirus infected in human MRC5 cells assessed as reduction in infection rate at 0.187 to 3 uM treated 24 hrs after infection measured after 6 days by Hoechst 33342 staining based microscopic analysis. Format: functional, cell-based. Particulars: dose microM 0.187-3, time 6.0 day.

In data set [14] the test system is Human betaherpesvirus 5. Kind of data set: Antiviral activity against human Cytomegalovirus harboring ANCHOR assessed as reduction in infection rate incubated for 1 hr followed by cell line addition and measured after 24 hrs by Hoechst 33342 staining based microscopic analysis. Format: functional. Particulars: ARPE-19, dose microM 0.187-3, time 25.0 hrs.
Data set [15] can be described thus: Selectivity index, ratio of CC50 for human MRC5 cells to IC50 for human Cytomegalovirus infected in human ARPE-19 cells incubated for 12 days. The settings on record: time 6 day, read-out: Ratio CC50/IC50. Format: toxicity, cell-based.
The subject of data set [16] is Human betaherpesvirus 5. The data set can be described thus: Antiviral activity against human Cytomegalovirus harboring ANCHOR assessed as reduction in viral DNA replication incubated for 1 hr followed by cell line addition and measured after 24 hrs by Hoechst 33342 staining based microscopic analysis. In kind it is functional. The settings on record: ARPE-19, dose microM 0.187-3, time 25.0 hrs.

Data set [17] has as its system Human betaherpesvirus 5. The data set can be described thus: Induction of viral entry in human Cytomegalovirus harboring ANCHOR infected in human ARPE-19 cells at 0.187 to 3 uM incubated for 18 hrs by Hoechst 33342 staining based microscopic analysis. In kind it is functional, organism-based. Particulars: dose microM 0.187-3, time 18.0 hrs.
Data set [18] deals with Human betaherpesvirus 5. Kind of data set: Antiviral activity against human Cytomegalovirus harboring ANCHOR infected in human ARPE-19 cells assessed as reduction in viral infection rate at 0.187 to 3 uM incubated for 18 hrs post infection by Hoechst 33342 staining based microscopic analysis. Format: functional, cell-based. Particulars: dose microM 0.187-3, time 18.0 hrs.

The test system of data set [19] is Human betaherpesvirus 5. The data set can be described thus: Antiviral activity against human Cytomegalovirus infected in human MRC5 cells assessed as reduction in infection rate at 0.187 to 3 uM preincubated for 1 hr with cells by Hoechst 33342 staining based microscopic analysis. In kind it is functional, cell-based. Particulars: dose microM 0.187-3, time 1.0 hrs.

Data set [20] relates to Human betaherpesvirus 5. The data set can be described thus: Induction of viral absorption in human Cytomegalovirus harboring ANCHOR infected in human ARPE-19 cells at 0.187 to 3 uM incubated for 18 hrs post infection by Hoechst 33342 staining based microscopic analysis. Format: functional, organism-based. The settings on record: dose microM 0.187-3, time 18.0 hrs.
The subject of data set [21] is Human betaherpesvirus 5. The data set can be described thus: Virucidal activity against human Cytomegalovirus infected in APRE-19 cells at 0.187 to 3 uM preincubated for 1 hr with virus followed by cell line addition and measured after 24 hrs by Hoechst 33342 staining based microscopic analysis. Format: functional. Particulars: ARPE-19, dose microM 0.187-3, time 25.0 hrs.

The next data set deals with RK13. The data set can be described thus: Effect on gB expression in human Cytomegalovirus harboring ANCHOR infected in rabbit RK13 cells assessed as reduction in replication at late phase by at 5 uM by immunofluorescence assay. In kind it is functional, cell-based. Particulars: Human betaherpesvirus 5.
Data set [22] deals with Human betaherpesvirus 5. Kind of data set: Antiviral activity against human Cytomegalovirus infected in human ARPE-19 cells assessed as reduction in viral DNA replication at 0.187-3 uM incubated for 18 hrs by Hoechst 33342 staining based microscopic analysis. In kind it is functional, cell-based. Particulars: dose microM 0.187-3, time 18.0 hrs.
The subject of data set [23] is Human betaherpesvirus 5. Kind of data set: Antiviral activity against human Cytomegalovirus harboring ANCHOR infected in ARPE-19 cells assessed as reduction in infection rate preincubated for 2 hrs with cells followed by infected with virus and measured after 24 hrs by Hoechst 33342 staining based microscopic analysis. In kind it is functional, cell-based. Particulars: dose microM 0.187-3, time 26.0 hrs.

The subject of data set [24] is Human betaherpesvirus 5. Kind of data set: Induction of viral entry in human Cytomegalovirus harboring ANCHOR infected in human MRC-5 cells at 0.187 to 3 uM incubated for 18 hrs by Hoechst 33342 staining based microscopic analysis. Format: functional, organism-based. Particulars: MRC5, dose microM 0.187-3, time 18.0 hrs.
Data set [25] has as its system Human betaherpesvirus 5. The data set can be described thus: Antiviral activity against Human cytomegalovirus harboring ANCHOR infected in ARPE-19 cells assessed as reduction in viral infection at 0.75 uM measured after 6 days by microscopic analysis relative to control. Format: functional, cell-based. The settings on record: time 6.0 day.
The subject of data set [26] is Human betaherpesvirus 5. Kind of data set: Antiviral activity against human Cytomegalovirus harboring ANCHOR infected in human MRC5 cells assessed as reduction in infection rate at 2.5 to 5 uM incubated for 6 days by Hoechst 33342 staining based microscopic analysis. In kind it is functional, cell-based. The settings on record: dose microM 2.5-5, time 6.0 day.
For data set [27], the system named is Human betaherpesvirus 5. Kind of data set: Antiviral activity against human Cytomegalovirus infected in human ARPE-19 cells assessed as reduction in infection rate incubated for 6 days by Hoechst 33342 staining based microscopic analysis. Format: functional, cell-based. The settings on record: Human betaherpesvirus 5, ARPE-19, 144 h; read-out: IC50.
A short description of data set [28]: Drug uptake in rabbit RK13 cells incubated for 24 hrs by Hoechst staining based microscopic analysis. Format: ADME, cell-based, Oryctolagus cuniculus. Particulars: rk13, 24 h.
Data set [29] in a line: Cytotoxicity against human ARPE-19 cells assessed as reduction in cell viability incubated for 6 days by Hoechst 33342 staining based microscopic analysis. Particulars: time 6 day.
The subject of data set [30] is Human betaherpesvirus 5. The data set can be described thus: Antiviral activity against human Cytomegalovirus harboring ANCHOR infected in human ARPE-19 cells assessed as reduction in infection rate at 1.25 to 2.5 uM incubated for 10 days by Hoechst 33342 staining based microscopic analysis. Format: functional, cell-based. Particulars: dose microM 1.25-2.5, time 10.0 day.

The subject of data set [31] is Human betaherpesvirus 5. The data set can be described thus: Antiviral activity against human Cytomegalovirus UL56 infected in human MRC5 cells assessed as reduction in infection rate incubated for 6 days by Hoechst 33342 staining based microscopic analysis. Format: functional, cell-based. The settings on record: Human betaherpesvirus 5, UL56, MRC5, 144 h.

The structures appear in SMILES notation. Active and inactive are the calls of the source. The rule behind the calls is not given here.

Turning to `O=[N+]([O-])c1ccc(-c2c3ccc([nH]3)c(-c3c(F)c(F)cc(F)c3F)c3nc(c4ccc([nH]4)c(-c4c(F)c(F)cc(F)c4F)c4ccc2[nH]4)C=C3)s1`, the IC50 in the data set with Human betaherpesvirus 5 [1] is 270 nM; in the data set with Human betaherpesvirus 5 [2], 130 nM. The selectivity ratio at 144 h is 15.6 in [3] and 385 in data set [4]. For the same compound, the half-maximal cytotoxic concentration (CC50) at 144 h in [5] was 4170 nM.
For the compound `Fc1c(F)c(F)c(-c2c3nc(c4ccc([nH]4)c(-c4c(F)c(F)c(F)c(F)c4F)c4ccc([nH]4)c(-c4c(F)c(F)c(F)c(F)c4F)c4ccc2[nH]4)C=C3)c(F)c1F`, the result with Human betaherpesvirus 5 [6], in the data set on Human betaherpesvirus 5 [10], in the data set on Human betaherpesvirus 5 [18], with Human betaherpesvirus 5 [19], with Human betaherpesvirus 5 [21] and with Human betaherpesvirus 5 [23] was inactive. The IC50 in the data set on Human betaherpesvirus 5 [1] was found to be 1190 nM; in the data set on Human betaherpesvirus 5 [12], 960 nM. Moreover, the result with Human betaherpesvirus 5 [7], in the data set on Human betaherpesvirus 5 [8], in the data set on Human betaherpesvirus 5 [11], with Human betaherpesvirus 5 [13], in the data set on Human betaherpesvirus 5 [17] and in the data set on Human betaherpesvirus 5 [20] was Active. Besides, the result in the data set on RK13, with Human betaherpesvirus 5 [22] and in the data set with Human betaherpesvirus 5 [25] was Active. Besides, the Activity result in the data set on Human betaherpesvirus 5 [9], in the data set on Human betaherpesvirus 5 [14], with Human betaherpesvirus 5 [16] and in the data set on Human betaherpesvirus 5 [24] was “Dose-dependent effect” in each case. Besides, the selectivity ratio at 144 h stood at 2.75 in [3] and 27 in data set [15]. In addition, the cytotoxic concentration (CC50) at 144 h in data set [5] amounted to 3270 nM.
With `Fc1cc(F)c(F)c(-c2c3nc(c4ccc([nH]4)c(-c4cc(F)cc(F)c4F)c4ccc([nH]4)c(-c4cc(F)cc(F)c4F)c4ccc2[nH]4)C=C3)c1`, the IC50 came to 6000 nM with Human betaherpesvirus 5 [1] and 3800 nM in the data set with Human betaherpesvirus 5 [27]. The result with Human betaherpesvirus 5 [26] and in the data set with Human betaherpesvirus 5 [30] was inactive. The selectivity ratio at 144 h in [3] is more than 7. Besides, in data set [28], the Drug uptake entry was “Active”. The half-maximal cytotoxic concentration (CC50) at 144 h in data set [29] and in data set [5] was more than 50000 nM throughout.
As for `COc1cccc(N2CCN(C3=Nc4c(F)cccc4[C@H](CC(=O)O)N3c3cc(C(F)(F)F)ccc3OC)CC2)c1` [LETERMOVIR], the half-inhibitory concentration (IC50) with Human betaherpesvirus 5 [31] is 4 nM.
